# Experimental data: patent publication US10934297B2, “5-heteroaryl substituted indazole-3-carboxamides and preparation and use thereof” (Samumed, LLC, priority 2018, dated 2021)
# Where two headings read alike, the source gives them in different places.
# Experiments:
# [1] = tested on: primary human fibroblasts derived from IPF patients (LL29 cells); assay: Inhibition of the fibrotic process: αSMA staining in TGF-β1 treated LL29 fibroblasts; type: cell-based; details: LL29 cells, TGF-β1 20 ng/mL, 4 days, % αSMA positive cells
# Outline: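 LL29 fibroblasts from IPF patients, in F12 medium with 1% FBS, treated with TGF-β1 plus compound; TGF-β1 with DMSO as positive control, DMSO alone as negative control. After 4 days' incubation, SYTOX green nucleic acid stain added at 1 μM final, 30 min at room temperature.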
# [2] = tested on: SW480 colon carcinoma cells; assay: Cell viability assay (CellTiter-Glo) in SW480 colon carcinoma cells; type: cell-based, human; details: four days
# Outline: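 SW480 cells stably carrying an Sp5-promoter luciferase reporter were plated at 2,000 cells/well in DMEM with 1% FBS and treated with compound for four days at 37 °C. Viability was read as ATP luminescence with CellTiter-Glo after about 12 min; DMSO-treated wells served as controls.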
# DYRK1A kinase = DYRK1A kinase (Homo sapiens (Human), UniProt Q13627); assay: DYRK1A kinase assay (Ser/Thr 18 peptide Z-lyte FRET); type: biochemical; details: read-out: EC50 (method: IC50)
# Outline: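 This Z-lyte FRET assay reads the coumarin/fluorescein emission ratio. Compounds were incubated with the reaction mixture for 1 h at room temperature, followed by development reagent for a further 1 h at room temperature, in duplicate.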
# GSK3β kinase = GSK3β kinase (Homo sapiens (Human), UniProt P49841); assay: GSK3β kinase assay (Ser/Thr 09 peptide Z-lyte FRET); type: biochemical; details: read-out: EC50 (method: IC50)
# Outline: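 Non-radioactive Z-lyte FRET read-out, kinase activity expressed as coumarin/fluorescein emission ratio. Compounds incubated with the reaction mixture one hour at room temperature in duplicate, then development buffer added for another hour. IC50 from non-linear regression of dose-response curves.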
# [3] = tested on: Wnt activity (Sp5-Luc reporter in SW480 cells); assay: Screening assay for Wnt activity: Sp5-Luc reporter gene assay in SW480 colon carcinoma cells; type: cell-based, human; details: 36 to 48 hours
# Outline: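 SW480 colon carcinoma cells stably carrying a lentiviral luciferase reporter driven by an Sp5 promoter with eight TCF/LEF sites, plated at 4,000 cells/well in DMEM with 1% FBS. Compound exposure for 36–48 h at 37 °C, then luminescence read. Signals normalized to DMSO; EC50 from four-parameter nonlinear fit.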
# IL-6 = IL-6 inhibition in LPS-stimulated human peripheral blood mononuclear cells (HTRF); type: cell-based; details: for EC50: huPBMCs, LPS 50 ng/mL, 22 hours, IL-6 HTRF; for inhibition at 10 µM: read-out: percent inhibition at 10 μM
# Outline: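 Fresh human PBMCs at 1×10e6 cells/mL in RPMI/1% FBS were stimulated with 50 ng/mL E. coli 0111:B4 LPS added 2 h after compound, then incubated 22 h at 37° C. Secreted IL-6 was measured by HTRF (665/620 nm ratio) after 3 h at room temperature. EC50 was taken from activity normalized to DMSO-treated cells.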
# [4] = tested on: primary human mesenchymal stem cells (hMSCs); assay: Tenocyte differentiation assay (SCXA-positive cells) in hMSCs; type: cell-based; details: for EC50: hMSCs, 4 days, SCXA positive cells; for percent in parentheses under EC50 >100: given for EC50 >100 μM, meaning not defined in this example
# Source text: Representative compounds were screened using primary human mesenchymal stem cells (hMSCs) to determine their ability to induce tenocyte differentiation (process by which tendon is developed).
# Primary human mesenchymal stem cells (hMSCs) were purchased from Lonza (Walkersville, Md.) and expanded in Mesenchymal Stem Cell Growth Media (Lonza). Cells between passage 3 and 6 were used for the experiments.
# Cells were fixed using 4% formaldehyde (Electron Microscopy Sciences), and stained with anti-Sclerasis (anti-SCXA) antibodies (Abgent, San Diego, Calif.) [Webb S., et.al., Retinoic acid receptor signaling preserves tendon stem cell characteristics and prevents spontaneous differentiation in vitro, Stem Cell Research & Therapy 2016, 7:45] overnight at 4° C. […] Number of cells positive for SCXA in each well was quantified using the CellInsight CX5. Data was normalized to the average of 12 DMSO treated wells on the same plate using Dotmatics Studies module. The normalized averages (fold change over DMSO) of 3 replicate wells for each compound concentration were calculated. Due to solubility limitations of some of the compounds, values for higher doses were manually corrected and curve fitting and EC50 determinations were performed using Dotmatics Studies.
# [5] = Homo sapiens, Mesenchymal stem cells, 96 h
# Chain of GSK3β kinase (P49841 whole entry): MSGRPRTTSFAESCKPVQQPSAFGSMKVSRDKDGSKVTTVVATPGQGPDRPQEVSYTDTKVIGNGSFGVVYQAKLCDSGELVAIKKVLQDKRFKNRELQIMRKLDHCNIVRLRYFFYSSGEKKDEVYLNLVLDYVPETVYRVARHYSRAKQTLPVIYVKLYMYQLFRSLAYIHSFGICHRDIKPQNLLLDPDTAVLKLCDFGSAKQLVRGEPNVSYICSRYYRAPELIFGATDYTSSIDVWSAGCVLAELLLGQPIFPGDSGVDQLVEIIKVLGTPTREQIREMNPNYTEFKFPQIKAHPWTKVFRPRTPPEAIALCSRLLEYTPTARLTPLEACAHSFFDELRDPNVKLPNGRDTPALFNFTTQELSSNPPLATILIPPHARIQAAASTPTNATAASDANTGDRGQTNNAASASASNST
"EC50 ([2]; Homo sapiens, 96 h) [nM]",IC50 (DYRK1A kinase) [nM],IC50 (GSK3β kinase) [nM],EC50 ([3]; Homo sapiens) [nM],"EC50 (IL-6; Homo sapiens, PBMC) [nM]","EC50 [4, 5] [nM]",percent in parentheses under EC50 >100 [4],EC50 [2] [nM],"IC50 (DYRK1A kinase; recombinant DYRK1A, 30 μM ATP, one hour, column head prints EC50) [nM]","IC50 (GSK3β kinase; recombinant GSK3β, 46 μM ATP, one hour, column head prints EC50) [nM]",EC50 [3] [nM],EC50 (IL-6) [nM],EC50 [4] [nM],Compound,"EC50 ([1]; Homo sapiens, Fibroblast, 96 h) [nM]",EC50 [1] [nM],"inhibition at 10 µM (IL-6; Homo sapiens, PBMC) [%]"
331,4,94,1530,8830,> 100000,(40.7%),–,–,–,–,–,–,"Cc1ncc(-c2cc3c(C(=O)Nc4ccc(OC5CCN(C)CC5)cc4)n[nH]c3cc2F)s1 [Compound 163, 6-Fluoro-N-(4-((1-methylpiperidin-4-yl)oxy)phenyl)-5-(2-methylthiazol-5-yl)-1H-indazole-3-carboxamide]",1000,–,–
–,–,–,–,–,–,(21.2%),473,4,20,335,3110,> 100000,"5-(1,2-Dimethyl-1H-imidazol-5-yl)-N-(2-methylthiazol-5-yl)-1H-indazole-3-carboxamide [Compound 139]",–,1240,–
493,5,633,180,3280,5720,–,–,–,–,–,–,–,"CNC(=O)c1ccc(NC(=O)c2n[nH]c3ccc(-c4cnn(C5CCN(C)CC5)c4)cc23)cn1 [Compound 128, N-(6-(Methylcarbamoyl)pyridin-3-yl)-5-(1-(1-methylpiperidin-4-yl)-1H-pyrazol-4-yl)-1H-indazole-3-carboxamide]",439,–,–
331,1,49,217,> 10000,> 100000,(36.0%),–,–,–,–,–,–,"CN1CCN(c2cccc(NC(=O)c3n[nH]c4cc(F)c(-c5cnn(C)c5)cc34)c2)CC1 [Compound 149, 6-Fluoro-5-(1-methyl-1H-pyrazol-4-yl)-N-(3-(4-methylpiperazin-1-yl)phenyl)-1H-indazole-3-carboxamide]",> 10000,–,44.7
4600,141,5060,> 10000,7690,> 100000,(12.7%),–,–,–,–,–,–,"Cc1nc(-c2ccc3[nH]nc(C(=O)Nc4ccc(OC5CCN(C)CC5)cc4)c3c2)cs1 [Compound 162, N-(4-((1-Methylpiperidin-4-yl)oxy)phenyl)-5-(2-methylthiazol-4-yl)-1H-indazole-3-carboxamide]",2640,–,–
105,6,193,125,2730,4920,–,–,–,–,–,–,–,"Cc1coc(NC(=O)c2n[nH]c3cc(F)c(-c4cnn(C5CCN(C)CC5)c4)cc23)n1 [Compound 138, 6-Fluoro-N-(4-methyloxazol-2-yl)-5-(1-(1-methylpiperidin-4-yl)-1H-pyrazol-4-yl)-1H-indazole-3-carboxamide]",435,–,–
6700,26,15,3870,1070,2640,–,–,–,–,–,–,–,"CN1CCC(CNC(=O)c2n[nH]c3ccc(-c4cnn(C)c4)cc23)CC1 [Compound 147, 5-(1-Methyl-1H-pyrazol-4-yl)-N-((1-methylpiperidin-4-yl)methyl)-1H-indazole-3-carboxamide]",723,–,–
1300,8,6440,> 10000,> 10000,> 100000,(27.4%),–,–,–,–,–,–,"Cc1cnc(NC(=O)c2n[nH]c3ccc(-c4cnn(C5CCN(C)CC5)c4)cc23)s1 [Compound 144, 5-(1-(1-Methylpiperidin-4-yl)-1H-pyrazol-4-yl)-N-(5-methylthiazol-2-yl)-1H-indazole-3-carboxamide]",2190,–,49
7890,378,41,> 10000,> 10000,1380,–,–,–,–,–,–,–,"Cn1cc(-c2cc(F)c3[nH]nc(C(=O)NC4CCC(F)(F)CC4)c3c2)cn1 [Compound 16, N-(4,4-Difluorocyclohexyl)-7-fluoro-5-(1-methyl-1H-pyrazol-4-yl)-1H-indazole-3-carboxamide]",1010,–,37.5
> 10000,439,43,> 10000,> 10000,> 100000,(16.1%),–,–,–,–,–,–,"C[C@H](NC(=O)c1n[nH]c2c(F)cc(-c3cnn(C)c3)cc12)C(F)(F)F [Compound 135, (S)-7-Fluoro-5-(1-methyl-1H-pyrazol-4-yl)-N-(1,1,1-trifluoropropan-2-yl)-1H-indazole-3-carboxamide]",> 10000,–,50.6
5180,813,68,840,3280,2830,–,–,–,–,–,–,–,"CC(C)CN1CC[C@H](NC(=O)c2n[nH]c3ccc(-c4cnn(C5CC5)c4)cc23)[C@@H](F)C1 [Compound 99, 5-(1-Cyclopropyl-1H-pyrazol-4-yl)-N-((3 S,4S)-3-fluoro-1-isobutylpiperidin-4-yl)-1H-indazole-3-carboxamide]",855,–,–
810,23,548,680,2820,> 100000,(15.5%),–,–,–,–,–,–,"CN1CCC(n2cc(-c3ccc4[nH]nc(C(=O)Nc5ccc(F)cc5)c4c3)cn2)CC1 [Compound 159, N-(4-Fluorophenyl)-5-(1-(1-methylpiperidin-4-yl)-1H-pyrazol-4-yl)-1H-indazole-3-carboxamide]",1370,–,–
> 10000,40,14,685,6850,1300,–,–,–,–,–,–,–,"Cn1cc(-c2ccc3[nH]nc(C(=O)NCC(F)(F)CN4CCCC4)c3c2)cn1 [Compound 106, N-(2,2-Difluoro-3-(pyrrolidin-1-yl)propyl)-5-(1-methyl-1H-pyrazol-4-yl)-1H-indazole-3-carboxamide]",795,–,–
1840,16,50,> 10000,3110,1320,–,–,–,–,–,–,–,"CC(C)CN1CC[C@H](NC(=O)c2n[nH]c3cc(F)c(-c4cnn(C)c4)cc23)[C@@H](F)C1 [Compound 34, 6-Fluoro-N-((3S,4S)-3-fluoro-1-isobutylpiperidin-4-yl)-5-(1-methyl-1H-pyrazol-4-yl)-1H-indazole-3-carboxamide]",439,–,–
1530,9,237,335,5780,2590,–,–,–,–,–,–,–,"CN1CCC(n2cc(-c3cc4c(C(=O)Nc5cncc(F)c5)n[nH]c4cc3F)cn2)CC1 [Compound 126, 6-Fluoro-N-(5-fluoropyridin-3-yl)-5-(1-(1-methylpiperidin-4-yl)-1H-pyrazol-4-yl)-1H-indazole-3-carboxamide]",2450,–,–
